ChEMBL document CHEMBL1201862, “PubChem BioAssay data set” (2004)
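A five-concentration, 48-hour dose response in 96-well plates underlies each endpoint, interpolated linearly between surrounding concentrations. The concentration for 50% growth inhibition is given as GI50.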 Calls of active or inactive are those of the source. Cut-off read from the data, not from the text of the source: active = GI50 up to about 1.1 µM and inactive = higher.

What was measured:
Assay in all cases: NCI tumour cell line growth inhibition, 48 h
NCI-H226 = system: NCI-H226
MDA-MB-435 = system: MDA-MB-435
MOLT-4 = system: MOLT-4
PC-3 = system: PC-3
CCRF-CEM = system: CCRF-CEM
IGROV-1 = system: IGROV-1
HOP-62 = system: HOP-62
COLO 205 = system: COLO 205
T47D = system: T47D
SNB-75 = system: SNB-75
LOX IMVI = system: LOX IMVI
NCI-H460 = system: NCI-H460
EKVX = system: EKVX
Malme-3M = system: Malme-3M
HL-60 = system: HL-60
SF-539 = system: SF-539
MCF7 = system: MCF7
KM12 = system: KM12
RPMI-8226 = system: RPMI-8226

Measured: GI50

CCOC(=O)NC(NC(C)CC)(C(F)(F)F)C(F)(F)F (stereo not given)
inactive: NCI-H226 > 100 µM | MDA-MB-435 > 100 µM | MOLT-4 > 100 µM | PC-3 > 100 µM | CCRF-CEM > 100 µM | IGROV-1 > 100 µM | HOP-62 > 100 µM | COLO 205 > 100 µM | T47D > 100 µM | SNB-75 > 100 µM | LOX IMVI > 100 µM | NCI-H460 > 100 µM | EKVX > 100 µM | Malme-3M > 100 µM | HL-60 > 100 µM | SF-539 > 100 µM | MCF7 > 100 µM | KM12 > 100 µM | RPMI-8226 > 100 µM

CCCCCCCCCCCCCCCCCCNc1ccn(C2OC(COP(=O)(O)OCC(COP(=O)(O)OCC3OC(n4cc(C)c(=O)[nH]c4=O)CC3N=[N+]=[N-])OCCCCCCCCCCCCCCCCCC)C(O)C2O)c(=O)n1 (stereo not given)
inactive: NCI-H226 > 100 µM | MDA-MB-435 87.1 µM | MOLT-4 41.5 µM | PC-3 29.4 µM | CCRF-CEM > 100 µM | IGROV-1 52.2 µM | HOP-62 > 100 µM | COLO 205 54.5 µM | T47D 46.7 µM | SNB-75 49 µM | LOX IMVI 21.2 µM | NCI-H460 54.3 µM | EKVX > 100 µM | Malme-3M 27 µM | HL-60 > 100 µM | SF-539 27 µM | MCF7 34.4 µM | KM12 38.5 µM | RPMI-8226 7.46 µM

CC(C)CC(NC(=O)C(Cc1ccccc1)NC(=O)[C@H]1CC[C@H](NC(=O)C(Cc2ccc(OC(C)(C)C)cc2)NC(=O)OC(C)(C)C)C1)C(N)=O (stereo not given in full)
inactive: NCI-H226 18.6 µM | MDA-MB-435 18.7 µM | MOLT-4 12.5 µM | PC-3 18.1 µM | CCRF-CEM 14.6 µM | IGROV-1 23.1 µM | HOP-62 36.2 µM | COLO 205 18.8 µM | T47D 18.5 µM | SNB-75 27.8 µM | LOX IMVI 17.1 µM | NCI-H460 17.3 µM | EKVX > 100 µM | Malme-3M 26.4 µM | HL-60 67 µM | SF-539 14.4 µM | MCF7 17.3 µM | KM12 20.2 µM | RPMI-8226 17.7 µM

CC(C)c1ccc(C(O)(C(=O)O)c2ccc(C(C)C)cc2)cc1
inactive: NCI-H226 24.5 µM | MDA-MB-435 95.7 µM | MOLT-4 48.8 µM | PC-3 31.6 µM | CCRF-CEM 49.4 µM | IGROV-1 55.7 µM | HOP-62 28.3 µM | COLO 205 > 100 µM | T47D 43.2 µM | SNB-75 42.7 µM | LOX IMVI 68.5 µM | NCI-H460 47.2 µM | EKVX 51.8 µM | Malme-3M 78.7 µM | HL-60 39.2 µM | SF-539 > 100 µM | MCF7 53.7 µM | KM12 39.6 µM | RPMI-8226 24.8 µM

CC1Cc2c(cc(N)nc2Br)NC1=O (stereo not given)
inactive: NCI-H226 > 100 µM | MDA-MB-435 62.4 µM | MOLT-4 43.1 µM | PC-3 > 100 µM | CCRF-CEM > 100 µM | IGROV-1 > 100 µM | HOP-62 > 100 µM | COLO 205 > 100 µM | T47D 42.7 µM | SNB-75 74.8 µM | LOX IMVI > 100 µM | NCI-H460 > 100 µM | EKVX 11 µM | Malme-3M > 100 µM | HL-60 > 10 µM | SF-539 > 100 µM | MCF7 > 100 µM | KM12 > 100 µM | RPMI-8226 > 100 µM

Cn1c(=O)cc(/N=N\c2ccc(Cl)c(Cl)c2)[nH]c1=O
inactive: NCI-H226 > 100 µM | MDA-MB-435 21.1 µM | MOLT-4 28.6 µM | PC-3 23.3 µM | CCRF-CEM 24.2 µM | IGROV-1 33 µM | HOP-62 > 100 µM | COLO 205 22.2 µM | T47D 29.7 µM | SNB-75 49.2 µM | LOX IMVI 19.2 µM | NCI-H460 29.9 µM | EKVX 24.5 µM | Malme-3M 16.1 µM | HL-60 20.8 µM | SF-539 > 100 µM | MCF7 26.7 µM | KM12 > 100 µM | RPMI-8226 28.3 µM

CC1c2ccccc2Cn2cc3c(c21)C(=O)c1cccc(OP(=O)(O)OCc2ccccc2)c1C3=O (stereo not given)
inactive: NCI-H226 > 100 µM | MDA-MB-435 > 100 µM | MOLT-4 > 100 µM | PC-3 > 100 µM | CCRF-CEM > 56 µM | IGROV-1 > 100 µM | HOP-62 > 100 µM | COLO 205 > 100 µM | T47D 51.6 µM | SNB-75 > 100 µM | LOX IMVI > 100 µM | NCI-H460 > 100 µM | EKVX > 66.1 µM | Malme-3M > 100 µM | HL-60 > 52.5 µM | SF-539 > 100 µM | MCF7 71.9 µM | KM12 > 100 µM | RPMI-8226 > 100 µM

CC(=O)OC1CCC2(C)C(=CCC3C4CCC5(OC6CC(C)CN(C(C)=O)C6C5C)C(C)=C4C(=O)C32)C1 (stereo not given)
inactive: NCI-H226 22.2 µM | MDA-MB-435 15.3 µM | MOLT-4 5.53 µM | PC-3 14.3 µM | CCRF-CEM > 100 µM | IGROV-1 14.4 µM | HOP-62 20.4 µM | COLO 205 14 µM | T47D 7.76 µM | SNB-75 19 µM | LOX IMVI 12 µM | NCI-H460 15.7 µM | EKVX 7.96 µM | Malme-3M 15.2 µM | HL-60 81.3 µM | SF-539 20.4 µM | MCF7 10.5 µM | KM12 16.7 µM | RPMI-8226 14.6 µM

CC(=O)O/C=C\OC1CCCC1
inactive: NCI-H226 > 100 µM | MDA-MB-435 > 100 µM | MOLT-4 > 100 µM | PC-3 > 100 µM | CCRF-CEM 21.9 µM | IGROV-1 > 100 µM | HOP-62 > 100 µM | COLO 205 > 100 µM | T47D > 100 µM | SNB-75 55 µM | LOX IMVI > 100 µM | NCI-H460 > 100 µM | EKVX > 100 µM | Malme-3M > 100 µM | HL-60 > 100 µM | SF-539 > 100 µM | MCF7 > 100 µM | KM12 > 100 µM | RPMI-8226 > 100 µM

COC(=O)/C=C/C(=O)Nc1cc(Cl)c(Cl)cc1CC(=O)N(C)[C@H]1CCCC[C@@H]1N1CCCC1
inactive: NCI-H226 15.3 µM | MDA-MB-435 5.61 µM | MOLT-4 3.18 µM | PC-3 5.05 µM | CCRF-CEM 2.79 µM | IGROV-1 7.21 µM | HOP-62 16.9 µM | COLO 205 1.54 µM | T47D 8.73 µM | SNB-75 13.8 µM | LOX IMVI 5.3 µM | NCI-H460 17.3 µM | EKVX 13.1 µM | Malme-3M 6.41 µM | HL-60 2.06 µM | SF-539 5.04 µM | MCF7 3.49 µM | KM12 22.1 µM | RPMI-8226 2.63 µM
